Literature values, collected in patent publication US20240093135A1, “BASE ELEMENT OF A MULTI-CHAMBER BIOCHIP, PRODUCTION OF THE MULTI-CHAMBER BIOCHIP, AND USE THEREOF FOR ESTABLISHING ORGAN AND DISEASE MODELS AND SUBSTANCE TESTS” (Dynamic42 GmbH, priority 2022, published 2024).

Conditions: PDMS chips, after 24 hours

SMILES: CCCC1COC(Cn2cncn2)(c2ccc(Cl)cc2Cl)O1 (stereo not shown) [propiconazole]
- detectable share of the starting concentration in the culture medium: less than 30%
